Assay results taken from PubChem BioAssay AID256 (DTP/NCI, 2004).
Several values for one entry are separate records, joined by “and”; a condition that tells them apart may be missing. Identical values can stand only once. Toxic doses and inconclusive results are not listed.

Tested on: CD2F1 mice, L1210 leukemia ip, survival T/C
Test: NCI In Vivo Anticancer Drug Screen. Data for tumor model L1210 Leukemia (intraperitoneal) in CD2F1 (CDF1) mice
Conditions: higher = longer survival
Method in brief: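 Vehicle-treated tumor-bearing mice served as controls (C) for compound-treated mice (T). Reported figure is T divided by C.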

[1] = endpoint: mean survival time, dose: 6.25 mg/kg/injection, schedule: Q04DX003 (ip), vehicle: distilled water + Tween-80
[2] = endpoint: mean survival time, dose: 100.0 mg/kg/injection, schedule: Q01DX001 (ip), vehicle: saline with Tween-80
[3] = endpoint: mean survival time, dose: 100.0 mg/kg/injection, schedule: Q01DX009 (ip), vehicle: saline with Tween-80
[4] = endpoint: mean survival time, dose: 200.0 mg/kg/injection, schedule: Q01DX009 (ip), vehicle: saline with Tween-80
[5] = endpoint: mean survival time, dose: 400.0 mg/kg/injection, schedule: Q01DX009 (ip), vehicle: saline with Tween-80
[6] = endpoint: mean survival time, dose: 100.0 mg/kg/injection, schedule: Q04DX003 (ip), vehicle: saline with Tween-80
[7] = endpoint: mean survival time, dose: 200.0 mg/kg/injection, schedule: Q04DX003 (ip), vehicle: saline with Tween-80

CCOC(=O)c1c(C)c2c(n1C)CC/C(=C\O)C2=O
T/C (endpoint: mean survival time, dose: 25.0 mg/kg/injection, schedule: Q04DX002 (ip), vehicle: other): 100 % of control | T/C (endpoint: mean survival time, dose: 50.0 mg/kg/injection, schedule: Q04DX002 (ip), vehicle: other): 96 % of control | T/C (endpoint: mean survival time, dose: 100.0 mg/kg/injection, schedule: Q04DX002 (ip), vehicle: other): 88 % of control and 96 % of control

C1CCC(C2CCCC[N-]2)[N-]C1.C1CCC(C2CCCC[N-]2)[N-]C1.[Cl][Ru][Cl] (centres undefined)
T/C (endpoint: mean survival time, dose: 3.13 mg/kg/injection, schedule: Q04DX003 (ip), vehicle: distilled water + Tween-80): 93 % of control | T/C [1]: 88 % of control | T/C (endpoint: mean survival time, dose: 12.5 mg/kg/injection, schedule: Q04DX003 (ip), vehicle: distilled water + Tween-80): 92 % of control | T/C (endpoint: mean survival time, dose: 25.0 mg/kg/injection, schedule: Q04DX003 (ip), vehicle: distilled water + Tween-80): 88 % of control | T/C (endpoint: mean survival time, dose: 50.0 mg/kg/injection, schedule: Q04DX003 (ip), vehicle: distilled water + Tween-80): 97 % of control

Nc1nc(N)c(-c2ccc(Cl)cc2)c(CBr)n1
T/C (endpoint: mean survival time, dose: 6.25 mg/kg/injection, schedule: Q01DX001 (ip), vehicle: saline): 95 % of control | T/C (endpoint: mean survival time, dose: 12.5 mg/kg/injection, schedule: Q01DX001 (ip), vehicle: saline): 98 % of control | T/C (endpoint: mean survival time, dose: 25.0 mg/kg/injection, schedule: Q01DX001 (ip), vehicle: saline with Tween-80): 106 % of control | T/C (endpoint: mean survival time, dose: 25.0 mg/kg/injection, schedule: Q01DX001 (ip), vehicle: saline): 98 % of control | T/C (endpoint: mean survival time, dose: 50.0 mg/kg/injection, schedule: Q01DX001 (ip), vehicle: saline with Tween-80): 95 % of control | T/C [2]: 102 % of control and 110 % of control

COc1ccc(N=C/C=C/c2ccccc2)cc1
T/C [3]: 97 % of control | T/C (endpoint: mean survival time, dose: 100.0 mg/kg/injection, schedule: Q04DX003 (ip), vehicle: saline sonified): 96 % of control | T/C [4]: 89 % of control | T/C (endpoint: mean survival time, dose: 200.0 mg/kg/injection, schedule: Q04DX003 (ip), vehicle: saline sonified): 103 % of control | T/C [5]: 90 % of control | T/C (endpoint: mean survival time, dose: 400.0 mg/kg/injection, schedule: Q04DX003 (ip), vehicle: saline sonified): 97 % of control

C[N+]1=C(c2ccccc2)CCC(C(C)(C)C)C1 (centres undefined)
T/C (endpoint: mean survival time, dose: 37.5 mg/kg/injection, schedule: Q04DX003 (ip), vehicle: saline): 102 % of control | T/C (endpoint: mean survival time, dose: 75.0 mg/kg/injection, schedule: Q01DX001 (ip), vehicle: saline): 95 % of control | T/C (endpoint: mean survival time, dose: 75.0 mg/kg/injection, schedule: Q04DX003 (ip), vehicle: saline): 96 % of control | T/C (endpoint: mean survival time, dose: 150.0 mg/kg/injection, schedule: Q01DX001 (ip), vehicle: saline): 92 % of control | T/C (endpoint: mean survival time, dose: 150.0 mg/kg/injection, schedule: Q04DX003 (ip), vehicle: saline): 100 % of control

Cc1ccccc1C1CCC(=O)OC1=O (centres undefined)
T/C [2]: 97 % of control | T/C (endpoint: mean survival time, dose: 100.0 mg/kg/injection, schedule: Q04DX002 (ip), vehicle: saline with Tween-80): 100 % of control | T/C (endpoint: mean survival time, dose: 200.0 mg/kg/injection, schedule: Q01DX001 (ip), vehicle: saline with Tween-80): 95 % of control | T/C (endpoint: mean survival time, dose: 200.0 mg/kg/injection, schedule: Q04DX002 (ip), vehicle: saline with Tween-80): 103 % of control | T/C (endpoint: mean survival time, dose: 400.0 mg/kg/injection, schedule: Q01DX001 (ip), vehicle: saline with Tween-80): 94 % of control | T/C (endpoint: mean survival time, dose: 400.0 mg/kg/injection, schedule: Q04DX002 (ip), vehicle: saline with Tween-80): 100 % of control

Oc1ccc2ccccc2c1/C=N/N=C/c1c(O)ccc2ccccc12
T/C (endpoint: mean survival time, dose: 12.5 mg/kg/injection, schedule: Q01DX009 (ip), vehicle: Klucel (hydroxypropylcellulose) (HPC)): 100 % of control | T/C (endpoint: mean survival time, dose: 25.0 mg/kg/injection, schedule: Q01DX009 (ip), vehicle: Klucel (hydroxypropylcellulose) (HPC)): 96 % of control | T/C (endpoint: mean survival time, dose: 50.0 mg/kg/injection, schedule: Q01DX009 (ip), vehicle: Klucel (hydroxypropylcellulose) (HPC)): 104 % of control

O=C(Nc1ncnc2c1[nH]c(=O)n2C1OC(CO)C2OC21)c1ccccc1 (centres undefined)
T/C (endpoint: mean survival time, dose: 12.5 mg/kg/injection, schedule: Q01DX005 (ip), vehicle: distilled water + Tween-80): 92 % of control | T/C (endpoint: mean survival time, dose: 25.0 mg/kg/injection, schedule: Q01DX005 (ip), vehicle: distilled water + Tween-80): 100 % of control | T/C (endpoint: mean survival time, dose: 50.0 mg/kg/injection, schedule: Q01DX005 (ip), vehicle: distilled water + Tween-80): 95 % of control | T/C (endpoint: mean survival time, dose: 100.0 mg/kg/injection, schedule: Q01DX005 (ip), vehicle: distilled water + Tween-80): 90 % of control | T/C (endpoint: mean survival time, dose: 200.0 mg/kg/injection, schedule: Q01DX005 (ip), vehicle: distilled water + Tween-80): 93 % of control

[Cl][Pt+2][Cl].[NH-]C1CCC1.[NH2-]
T/C (endpoint: mean survival time, dose: 0.39 mg/kg/injection, schedule: Q04DX003 (ip), vehicle: saline): 98 % of control | T/C (endpoint: mean survival time, dose: 0.78 mg/kg/injection, schedule: Q04DX003 (ip), vehicle: saline): 100 % of control | T/C (endpoint: mean survival time, dose: 1.56 mg/kg/injection, schedule: Q04DX003 (ip), vehicle: saline): 120 % of control | T/C (endpoint: mean survival time, dose: 3.12 mg/kg/injection, schedule: Q04DX003 (ip), vehicle: distilled water + Tween-80): 110 % of control | T/C (endpoint: mean survival time, dose: 3.12 mg/kg/injection, schedule: Q04DX003 (ip), vehicle: water): 200 % of control | T/C [1]: 86 % of control | T/C (endpoint: mean survival time, dose: 6.25 mg/kg/injection, schedule: Q04DX003 (ip), vehicle: saline): 168 % of control | T/C (endpoint: mean survival time, dose: 6.25 mg/kg/injection, schedule: Q04DX003 (ip), vehicle: water): 111 % of control | T/C (endpoint: median survival time, dose: 0.38 mg/kg/injection, schedule: Q01DX009 (ip), vehicle: saline): 122 % of control | T/C (endpoint: median survival time, dose: 1.5 mg/kg/injection, schedule: Q01DX009 (ip), vehicle: saline): 156 % of control and 172 % of control | T/C (endpoint: median survival time, dose: 3.0 mg/kg/injection, schedule: Q01DX009 (ip), vehicle: saline): 184 % of control and 213 % of control | T/C (endpoint: median survival time, dose: 3.0 mg/kg/injection, schedule: Q01DX009 (ip), vehicle: suspension in saline): 314 % of control | T/C (endpoint: median survival time, dose: 6.0 mg/kg/injection, schedule: Q01DX009 (ip), vehicle: saline): 116 % of control and 123 % of control | T/C (endpoint: median survival time, dose: 12.0 mg/kg/injection, schedule: Q01DX009 (ip), vehicle: suspension in saline): 111 % of control

C=C(NC(C)=O)C(=O)CCC(N)=O
T/C (endpoint: mean survival time, dose: 5.0 mg/kg/injection, schedule: Q01DX009 (ip), vehicle: saline): 101 % of control | T/C (endpoint: mean survival time, dose: 10.0 mg/kg/injection, schedule: Q01DX009 (ip), vehicle: saline): 95 % of control | T/C (endpoint: mean survival time, dose: 10.0 mg/kg/injection, schedule: Q04DX003 (ip), vehicle: saline): 93 % of control | T/C (endpoint: mean survival time, dose: 20.0 mg/kg/injection, schedule: Q01DX009 (ip), vehicle: saline): 98 % of control | T/C (endpoint: mean survival time, dose: 20.0 mg/kg/injection, schedule: Q04DX003 (ip), vehicle: saline): 97 % of control

COc1ccc(C2C(C(C)=O)=C(C)NC(C)=C2C(C)=O)cc1
T/C [6]: 88 % of control | T/C [7]: 87 % of control

Clc1ccc(-c2nc3ccccc3s2)cc1
T/C (endpoint: mean survival time, dose: 100.0 mg/kg/injection, schedule: Q01DX001 (ip), vehicle: Klucel (hydroxypropylcellulose) (HPC)): 100 % of control | T/C (endpoint: mean survival time, dose: 200.0 mg/kg/injection, schedule: Q01DX001 (ip), vehicle: Klucel (hydroxypropylcellulose) (HPC)): 95 % of control | T/C (endpoint: mean survival time, dose: 400.0 mg/kg/injection, schedule: Q01DX001 (ip), vehicle: Klucel (hydroxypropylcellulose) (HPC)): 100 % of control

CC1CCc2c(nc(C#N)c(=N)n2O)C1 (centres undefined)
T/C (endpoint: mean survival time, dose: 100.0 mg/kg/injection, schedule: Q04DX003 (ip), vehicle: Klucel (hydroxypropylcellulose) (HPC)): 102 % of control | T/C (endpoint: mean survival time, dose: 200.0 mg/kg/injection, schedule: Q04DX003 (ip), vehicle: Klucel (hydroxypropylcellulose) (HPC)): 106 % of control | T/C (endpoint: mean survival time, dose: 400.0 mg/kg/injection, schedule: Q04DX003 (ip), vehicle: Klucel (hydroxypropylcellulose) (HPC)): 98 % of control

Cc1cccc(N)n1 (tested in a mixture with another compound)
T/C (endpoint: mean survival time, dose: 12.5 mg/kg/injection, schedule: Q01DX009 (ip), vehicle: saline): 104 % of control | T/C (endpoint: mean survival time, dose: 25.0 mg/kg/injection, schedule: Q01DX009 (ip), vehicle: saline): 101 % of control | T/C (endpoint: mean survival time, dose: 50.0 mg/kg/injection, schedule: Q01DX009 (ip), vehicle: saline): 96 % of control

CC(=O)c1cccc2cccc([N+](=O)[O-])c12
T/C [3]: 101 % of control | T/C [6]: 102 % of control | T/C [4]: 102 % of control | T/C [7]: 102 % of control | T/C [5]: 102 % of control | T/C (endpoint: mean survival time, dose: 400.0 mg/kg/injection, schedule: Q04DX003 (ip), vehicle: saline with Tween-80): 100 % of control

CCOC(=O)C(N)Cc1ccc(OC)c(N(CCCl)CCCl)c1 (centres undefined)
T/C (endpoint: mean survival time, dose: 1.1 mg/kg/injection, schedule: Q01DX001 (ip), vehicle: carboxymethylcellulose (CMC)): 122 % of control | T/C (endpoint: mean survival time, dose: 1.7 mg/kg/injection, schedule: Q01DX001 (ip), vehicle: carboxymethylcellulose (CMC)): 120 % of control

CN(CCN1CCCC1)C(=O)C(O)(c1ccccc1)c1ccccc1
T/C (endpoint: mean survival time, dose: 100.0 mg/kg/injection, schedule: Q04DX003 (ip), vehicle: saline): 96 % of control | T/C (endpoint: mean survival time, dose: 200.0 mg/kg/injection, schedule: Q04DX003 (ip), vehicle: saline): 93 % of control
